Experiments:
Experiment in all cases: relative viability (nuclei count vs DMSO), 5 days (fraction); higher = more cells survive
[1] = compound: Cn1cc(-c2cnn3c(N)c(Br)c([C@@H]4CCCNC4)nc23)cn1 + Nc1ncn([C@H]2C[C@H](O)[C@@H](CO)O2)c(=O)n1 [Decitabine] (partner 2 µM)
Procedure, shortened: (§1)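 A single step with final 0.05% Triton X-100, 1% formaldehyde and 1 ug/ml Hoechst fixed the cells and stained nuclei 5 days after treatment. Lung cancer cell lines in 1536-well plates had been treated by pin tool the day after seeding with one drug alone or a fixed anchor-drug dose plus five library-drug doses (not always all listed) in √10 steps, and nuclei were counted on 4× images. Relative viability is the ratio of nuclei in treated wells to nuclei in vehicle wells, taken as the median of duplicate plates.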

[2] = compound: Cn1cc(-c2cnn3c(N)c(Br)c([C@@H]4CCCNC4)nc23)cn1 + Cc1nc(Nc2ncc(C(=O)Nc3c(C)cccc3Cl)s2)cc(N2CCN(CCO)CC2)n1 [Dasatinib] (partner 0.075 µM)
Procedure, shortened: as §1

[3] = compound: Cn1cc(-c2cnn3c(N)c(Br)c([C@@H]4CCCNC4)nc23)cn1 + COc1cc2c(Oc3ccc(NC(=O)C4(C(=O)Nc5ccc(F)cc5)CC4)cc3F)ccnc2cc1OCCCN1CCOCC1 [Foretinib] (partner 0.25 µM)
Procedure, shortened: as §1

[4] = compound: Cn1cc(-c2cnn3c(N)c(Br)c([C@@H]4CCCNC4)nc23)cn1 + CCNC(=O)c1noc(-c2cc(C(C)C)c(O)cc2O)c1-c1ccc(CN2CCOCC2)cc1 [Luminespib] (partner 0.01 µM)
Procedure, shortened: as §1

| Cell Line | relative viability ([1]; first compound 0.05 µM) | relative viability ([1]; first compound 0.1581 µM) | relative viability ([1]; first compound 0.5 µM) | relative viability ([1]; first compound 1.581 µM) | relative viability ([1]; first compound 5 µM) | relative viability ([2]; first compound 0.05 µM) | relative viability ([2]; first compound 0.1581 µM) | relative viability ([2]; first compound 0.5 µM) | relative viability ([2]; first compound 1.581 µM) | relative viability ([2]; first compound 5 µM) | relative viability ([3]; first compound 0.05 µM) | relative viability ([3]; first compound 0.1581 µM) | relative viability ([3]; first compound 0.5 µM) | relative viability ([3]; first compound 1.581 µM) | relative viability ([3]; first compound 5 µM) | relative viability ([4]; first compound 0.05 µM) | relative viability ([4]; first compound 0.1581 µM) | relative viability ([4]; first compound 0.5 µM) | relative viability ([4]; first compound 1.581 µM) | relative viability ([4]; first compound 5 µM) |
| --- | --- | --- | --- | --- | --- | --- | --- | --- | --- | --- | --- | --- | --- | --- | --- | --- | --- | --- | --- | --- |
| NCI-H727 | 0.919 | 0.858 | 0.923 | 0.696 | 0.705 | 0.29 | 0.292 | 0.333 | 0.403 | 0.287 | 0.949 | 0.905 | 0.967 | 0.882 | 0.527 | 0.345 | 0.412 | 0.315 | 0.354 | 0.343 |
| NCI-H838 | 0.483 | 0.574 | 0.545 | 0.51 | 0.309 | 0.196 | 0.298 | 0.277 | 0.284 | 0.254 | 1.1 | 1.2 | 1.01 | 1.11 | 0.965 | 0.346 | 0.252 | 0.261 | 0.225 | 0.222 |
| NCI-H1355 | 0.344 | 0.332 | 0.378 | 0.417 | 0.358 | 0.705 | 0.705 | 0.596 | 0.652 | 0.566 | 1.05 | 1.21 | 0.967 | 0.89 | 0.955 | 0.691 | 0.662 | 0.699 | 0.609 | 0.735 |
| NCI-H1395 | 0.761 | 0.554 | 0.63 | 0.501 | 0.378 | 0.397 | 0.463 | 0.399 | 0.368 | 0.351 | 0.99 | 0.94 | 0.914 | 0.589 | 0.455 | 0.762 | 0.536 | 0.687 | 0.349 | 0.379 |
| NCI-H1437 | 0.556 | 0.695 | 0.655 | 0.623 | 0.21 | 0.389 | 0.39 | 0.4 | 0.298 | 0.343 | 1.24 | 1.4 | 1.41 | 1.32 | 1.19 | 1.13 | 1.2 | 1.19 | 0.932 | 0.861 |
| NCI-H1650 | 0.445 | 0.478 | 0.373 | 0.445 | 0.3 |  | 0.296 | 0.257 | 0.256 | 0.178 |  | 1.3 | 1.2 | 1.05 | 0.658 |  | 0.146 | 0.241 | 0.194 | 0.186 |
| NCI-H1651 | 0.566 | 0.648 | 0.613 | 0.552 | 0.385 | 0.348 | 0.447 | 0.551 | 0.224 | 0.149 | 0.828 | 1 | 0.887 | 0.496 | 0.213 | 0.721 | 0.767 | 0.848 | 0.327 | 0.195 |
| NCI-H1666 | 0.629 | 0.699 | 0.719 | 0.698 | 0.713 | 0.818 | 0.734 | 0.642 | 0.756 | 0.785 | 0.936 | 1.05 | 0.888 | 1.05 | 0.919 | 0.971 | 1.02 | 0.906 | 0.958 | 0.917 |

From the supplement of paper PMC10307832
